{
  "source": "patent US20170072007A1",
  "about": "“PHANTOM PHENOMENA TREATMENT” (OTOLANUM AG, priority 2005, published 2017)",
  "key": {"[1]": {"test_system": "BDNF exon IV expression in cochlear neurons", "assay": "Salicylate-induced acute tinnitus: effect of test substance on BDNF/c-fos expression in cochlear neurons (RT-PCR)", "assay_type": "in vivo, rat"}, "[2]": {"test_system": "Arc expression in auditory cortex", "assay": "Salicylate-induced acute tinnitus: effect of test substance on gene expression in the auditory cortex (RT-PCR)", "assay_type": "in vivo, rat", "conditions": "systemic 0.5 mg/kg, 2.5 hours after 350 mg/kg salicylate, n=12, p<0.05", "protocol": "Rnase H reverse transcriptase according to the Invitrogen protocol.\nTwo and half hours after the induction of acute tinnitus by injection of 350 mg/kg salicylate, the animals received systemic administration of midazolam (Dormicum, Roche, Grenzach-Wyhlen, Germany) (0.5 mg/kg of body weight), and gene expression was investigated after removal of organs with the aid of RT-PCR. […] Statistical analysis was carried out with Student's T test; *=p<0.05.\nIn a further experiment corresponding to the above, a GABA receptor agonist was administered, under conditions which were otherwise identical, not systemically but locally into the niche of the round window."}, "[3]": {"conditions": "before and 20 hours after local salicylate, 5 μl, 70 mg/kg, n=5", "from_the_text": "Adult female Wistar rats weighing between 280 and 300 grams were used for the experiments. The treatment and handling of these animals took place in conformity with the institutional guidelines of Tübingen University, Tierforschungsanstalt.\n(§1) The rats were anesthetized intraperitoneally by the method of Guitton, M. J. et al. (2003), Salicylate induces tinnitus through activation of cochlear NMDA receptors, J. Neurosci. 23, pages 3944 to 3952, in order to place a so-called gel foam (Gelita Tampon; B. Braun Medical, Melsungen, Germany) over the round window of both ears. The gel foam was impregnated as indicated with salicylate, which was diluted in artificial perilymph solution (70 mg/ml), or with the corresponding volume of artificial perilymph alone. The gel foam was in the niche of the round window as described; Guitton J. et al. (loc. cit.). The salicylate was locally administered thus for 20 hours. After this time, the animals were sacrificed and the cochlea and the auditory cortex were removed.\nThe anesthesia of the animals and the ABR screening was carried out as described previously; cf. Knipper, M. et al. (2000), loc. cit.; Schimmang, T. et al. (2003), Lack of BDNF and trkB signalling in the postnatal cochlea leads to a spatial reshaping of innervation along the tonotopic axis and hearing loss, Development 130, pages 4741 to 4750. […]"}, "[4]": {"test_system": "c-fos, BDNF exon-III and BDNF exon IV transcripts in cochlear tissue", "protocol": "as §1"}, "[5]": {"test_system": "c-fos, BDNF exon-III and BDNF exon IV in cochlear spiral ganglia", "conditions": "local 5 μl 70 mg/ml and systemic 350 mg/kg, versus artificial perilymph", "procedure": "Carbon dioxide was used for deep anesthesia of the animals, which were then decapitated. The cochleae were isolated and prepared as described previously; cf. […] Briefly, the cochleae were fixed by immersion in 2% paraformaldehyde, 125 mM sucrose in 100 mM phosphate-buffered saline (PBS), pH 7.4, for two hours and, following the fixation, decalcified in rapid bond decalcifier (#904687, Eurobio, Fisher-Scientific, 61130 Nidderau, Germany) for 45 minutes, subsequently followed by incubation in 25% sucrose, 1 mM protease inhibitor (Pefabloc, Roche) in Hanks buffered saline overnight. Following the overnight incubation, the cochleae were embedded in O.C.T. compound (Miles Laboratories, Elkhart, Ind., USA). The tissues were then cryosectioned with a thickness of 10 μm for the in situ hybridization, stored on SuperFrost*/plus slides and stored at −20° C. before use.\nGenomic DNA from rat liver tissue was isolated using the Easy DNA kit from Invitrogen in accordance with the manufacturer's information. A polymerase chain reaction was carried out in order to amplify all four non-coding 5′ exons of the BDNF gene.\nIn the PCR reaction, the genomic DNA was first denatured at 94° C. for four minutes, followed by 30 cycles of one minute at 94° C., one minute at 55° C. and one minute at 72° C. The extension reaction was carried out at 70° C. for 10 minutes. […]"}, "[6]": {"test_system": "c-fos, BDNF exon-III, BDNF exon-IV and Arc in auditory cortex", "procedure": "Total RNA was isolated using the total RNeasy kit from Qiagen both from the cochlea and from brain tissue and was treated with DNase (Ambion) in order to remove DNA contaminants. The RNA was then purified and the concentration was determined by spectrometric measurements. Reverse transcription of the brain tissue was carried out in a reaction volume of 20 μl using 1 μg of total RNA as template and [sequence] II Rnase H reverse transcriptase according to the Invitrogen protocol. Because of the limited amount of RNA in the cochlear tissues, Qiagen Senscript reverse transcriptase was used, as described in the Qiagen protocol, using 50 ng of total RNA as template. The number of cycles and the annealing temperature for the PCR was optimized so that the signals obtained for BDNF, c-fos and glyceraldehyde-3-phosphate dehydrogenase (GAPDH) were not saturated.\nThe PCR was carried out in a final reaction volume of 25 μl, using both primers for GAPDH and the activity-dependent genes simultaneously. In this duplex PCR reaction, a housekeeping gene in the same PCR reaction represents an internal control, so that the intensity of the activity-dependent gene can be compared unambiguously with the control and the treated samples. PCR ready-to-go beads from Amersham Pharmacia were used in order to ensure a standardization of the PCR conditions and to reduce contamination during pipetting. Finally, the PCR products were analyzed in a 2% agarose gel which was visualized using an ethidium bromide stain and densitometric analysis using an Alpha Imager 2200 from Biometra. The intensity of the amplified activity-dependent gene was normalized for each reaction to the level of the coamplified GAPDH. The amplification conditions for arc, BDNF, c-fos and GAPDH were for the initial denaturation phase of 94° C. for three minutes, 30 cycles each of one minute of denaturation (94° C.), one minute of annealing (54° C.), 1.5 minutes of extension (72° C.) and a final extension phase of ten minutes at 72° C.\nThe auditory cortices investigated were obtained from animals in which the cochlea were investigated for the dose-dependent effect of salicylate, the mRNA was isolated and an RT-PCR was carried out as described under Material and Methods."}, "[7]": {"conditions": "increasing amounts of salicylate locally into round window niche, n=3"}},
  "note": "“Also recorded” adds a separate entry of the source. Read-outs that look alike come from different tables or passages of the source.",
  "data": [
    {"molecule": "Cc1ncc2n1-c1ccc(Cl)cc1C(c1ccccc1F)=NC2", "note": "[midazolam]", "values": [
      {"measurement": "effect of salicylate on the expression of BDNF exon-IV in cochlear neurons", "setting": "[1]; systemic 0.5 mg/kg, 2.5 hours after 350 mg/kg salicylate, n=7, p<0.05", "value": "significant reduction; also recorded: significantly reduced; also recorded: inhibited"},
      {"measurement": "effect on salicylate-changed expression of c-fos", "setting": "[1]; systemic 0.5 mg/kg, 2.5 hours after 350 mg/kg salicylate, n=7 to 12", "value": "remains incapable of being influenced"},
      {"measurement": "effect of salicylate on the expression of Arc in the auditory cortex", "setting": "[2]", "value": "significant reduction"}
    ]},
    {"molecule": "O=C(O)c1ccccc1O", "note": "[salicylate]", "values": [
      {"measurement": "frequency-specific ABR screening", "setting": "[3]", "value": "no loss of hearing"},
      {"measurement": "increase in the expression of BDNF exon-IV (densitometric analysis)", "setting": "[4]; cochlea, n=8, p<0.05", "value": "49±12", "unit": "%"},
      {"measurement": "increase in the expression of c-fos (densitometric analysis)", "setting": "[4]; cochlea, n=8, p<0.05", "value": "69±11", "unit": "%"},
      {"measurement": "c-fos expression in cochlear tissue", "setting": "[4]; gel foam local, 5 μl, 70 mg/ml, found at 20 hours, not at three hours", "value": "significant upregulation"},
      {"measurement": "expression of the BDNF exon-IV transcript in cochlear neurons", "setting": "[4]; [7]", "value": "increased"},
      {"measurement": "expression of BDNF exon-IV and c-fos in cochlear neurons", "setting": "[4]; systemic 350 mg/kg salicylate", "value": "elevated expression"},
      {"measurement": "c-fos expression in cochlear tissue", "setting": "[4]; systemic i.p. 350 mg/kg of body weight, after three hours", "value": "upregulation"},
      {"measurement": "hybridization signals for c-fos, BDNF exon-III and BDNF exon IV in the middle basal cochlear turn", "setting": "[5]", "value": "significantly increased"},
      {"measurement": "decrease in the expression of BDNF exon-IV (densitometric analysis)", "setting": "[6]; auditory cortex, n=8, p<0.05", "value": "49±12", "unit": "%"},
      {"measurement": "decrease in the expression of c-fos (densitometric analysis)", "setting": "[6]; auditory cortex, n=8, p<0.05", "value": "69±11", "unit": "%"},
      {"measurement": "expression of Arc in the auditory cortex", "setting": "[6]; [7]", "value": "decreased"},
      {"measurement": "expression of c-fos, BDNF exon-III and BDNF exon-IV in the auditory cortex", "setting": "[6]; local administration, all dosages of salicylate", "value": "reduction"},
      {"measurement": "expression of Arc in the primary auditory cortex", "setting": "[6]; systemic 350 mg/kg salicylate", "value": "decrease"}
    ]},
    {"molecule": "COC(=O)C1=C(C)NC(C)=C(C(=O)OC(C)C)C1c1cccc2nonc12", "note": "(centres unmarked) [isradipine]", "values": [
      {"measurement": "salicylate-induced upregulation of BDNF (exon IV) in cochlear neurons", "setting": "[1]; 10 μl of 10 mM solution locally at round window 22 hours before tissue removal, salicylate 350 mg/kg systemic 3 hours before", "value": "inhibited"}
    ]}
  ]
}
